The source of these data is patent US9322032B2, “Arabidopsis ring E3 ubiquitin ligase for promotion of plant germination” (INDUSTRY-ACADEMIC COOPERATION FOUNDATION, YONSEI UNIVERSITY, priority 2011, dated 2016).

One series deals with AtAIRP2 gene promoter. The experiment in a line: Histochemical GUS assay of AtAIRP2 promoter activity. The series is classed as in vivo, Arabidopsis thaliana. As to conditions: 100 μM ABA, 3 hours. Here is the method: […] After removal of the acetone, the plant was washed 3 times with rincing solution containing 50 mM NaPO4, 1 mM K3Fe(CN)6, and 1 mM K4Fe(CN)6, and immersed in 2 mM X-Gluc (5-bromo-4-chloro-3-indolyl glucuronide, sigma) and vacuumed for 1 min. After staining at 37° C. in the dark until the color was changed, the plant was incubated in 90% ethanol to remove chlorophyll.
(§1) The AtAIRP2 gene expressions in various abiotic stresses were analyzed by RT-PCR. After treatments of low-temperature (12 hours and 24 hours), drought (1 hour and 2 hours), salt (1.5 hour and 3 hours) and ABA hormone (1.5 hour and 3 hours) stresses, RNA from each of samples was extracted to analyze the gene expression patterns. As a result, it was determined that the gene expression levels of stress treatments were increased than those of non-stress treatments, thereby the AtAIRP2 gene expression is induced by salt, low-temperature, drought and ABA hormone stresses (FIG. 1). In addition, the AtAIRP2 protein expressions in various abiotic stresses were analyzed by histochemical GUS assay. After treatments of ABA hormone (3 hours) and drought (2 hours) stresses, the degree of the staining was analyzed. As a result, it was determined that the degrees of the staining of stress treatments were increased than those of before the stress treatments (FIG. 2).

Another series relates to AtAIRP2 gene. The series is described as follows: AtAIRP2 gene expression by RT-PCR after stress treatment. The series is classed as in vivo, Arabidopsis thaliana. As to conditions: 100 μM ABA, 1.5 hour and 3 hours, 2-week-old wild type seedlings. Here is the method: In order to determine expressions of the AtAIRP2 gene to drought stress, the wild type Arabidopsis thaliana seedlings which were grown on medium for 2 weeks were exposed in the air, and sampled after 1 hour and 2 hours. In order to determine expressions of the AtAIRP2 gene to salt stress, the wild type Arabidopsis thaliana seedlings which were grown on medium for 2 weeks were treated with 300 mM sodium chloride, and sampled after 1.5 hour and 3 hours. In order to determine expressions of the AtAIRP2 gene to low-temperature stress, the wild type Arabidopsis thaliana seedlings which were grown on medium for 2 weeks were incubated at 4° C. for 12 hours and 24 hours, and sampled. […]
as §1, with “After treatments of low-temperature (12 hours and 24 hours), drought (1 hour and 2 hours), salt (1.5 hour and 3 hours) and ABA hormone (1.5 hour and 3 hours) stresses, RNA from each of samples was extracted to analyze the gene expression patterns.” left out

In the next series the target is T1, E3 ubiquitin ligase (Arabidopsis thaliana, UniProt Q9M022).
T1 construct: the ORF of the AtAIRP2 gene was subcloned into pMAL-X vector in-frame with MBP; made in house; host or cells: Escherichia coli BL21-CodonPlus (DE3) RIL
T1 sequence (Q9M022 1-242): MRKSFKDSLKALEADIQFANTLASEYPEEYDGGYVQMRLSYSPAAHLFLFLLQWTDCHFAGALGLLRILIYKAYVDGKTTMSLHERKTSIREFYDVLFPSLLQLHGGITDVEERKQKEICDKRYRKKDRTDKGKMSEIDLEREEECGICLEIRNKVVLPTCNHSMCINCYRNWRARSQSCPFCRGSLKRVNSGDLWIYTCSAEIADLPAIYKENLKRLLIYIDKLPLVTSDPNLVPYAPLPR
The experiment in a line: Self-ubiquitination assay (Western blot, anti-MBP and anti-ubiquitin). The series is classed as biochemical. Particulars: with UBA1, UBC8, ubiquitin, 30° C., 1 hour. The procedure:
For the enzymatic activity analysis of the AtAIRP2 protein, the ORF of the AtAIRP2 gene was subcloned into pMAL-X vector in-frame with MBP (maltose-binding protein). 40 mM Tris-HCI, pH 7.5, 5 mM MgCl2, 2 mM ATP, 2 mM dithiothreitol (DTT), 300 ng/μL ubiquitin (Sigma), 25 μM MG132 (A.G. Scientific Inc.), 500 ng UBA1 (ABRC, www.arabidopsis.org), 500 ng UBC8 (ABRC, www.arabidopsis.org) and 500 ng MBP-AtAIRP2 were added to each of tubes and incubated at 30° C. After addition of sample buffer solution, the resultant was heated at 100° C. for 5min, and performed by Western blot using anti-MBP (New England Bio Labs) and anti-ubiquitin (Santa Cruz) antibodies.
Maltose-binding protein (MBP) was bound to the AtAIRP2 proteins. Then, the MBP-AtAIRP2 was incubated with UBA1, UBC8, ubiquitin and AtAIRP2 at 30° C. for 1 hour to perform Self-Ubiquitination, and performed by Western blot using MBP- and ubiquitin-specific antibodies to analyze changes in the protein levels. As a result, it was determined that the molecular weight of the AtAIRP2 protein was increased through Western blot using anti-MBP antibody, and the increase was induced due to ubiquitin (FIG. 3).
A general note: In western blotting, separated proteins are transferred to a membrane and probed.

Turning to `CC1=CC(=O)CC(C)(C)C1(O)/C=C/C(C)=C\C(=O)O` (stereo not drawn) [ABA], in the series with AtAIRP2 gene promoter, the “GUS signals (AtAIRP2 promoter activity)” value is “markedly induced”. Moreover, the AtAIRP2 gene expression result in the series with AtAIRP2 gene was “induced”.

B1: AtAIRP2 protein: RING protein encoded by At5g01520 (SEQ ID NO:2), tested as maltose-binding protein fusion (protein)
chain: T1 sequence (Q9M022 1-242)
modifications: left off: large carriers
As to B1, the “enzymatic activity of E3 ubiquitin ligase” value in the series with E3 ubiquitin ligase is “possessed ability for enzymatic activity of E3 ubiquitin ligase”.
